The target of data set [1] is T1, soybean lipoxygenase (LOX) (Glycine max, UniProt P08170).
T1 construct: purchased Sigma Chemical, Co. (St. Louis, MO, USA)
T1 sequence (P08170 1-839): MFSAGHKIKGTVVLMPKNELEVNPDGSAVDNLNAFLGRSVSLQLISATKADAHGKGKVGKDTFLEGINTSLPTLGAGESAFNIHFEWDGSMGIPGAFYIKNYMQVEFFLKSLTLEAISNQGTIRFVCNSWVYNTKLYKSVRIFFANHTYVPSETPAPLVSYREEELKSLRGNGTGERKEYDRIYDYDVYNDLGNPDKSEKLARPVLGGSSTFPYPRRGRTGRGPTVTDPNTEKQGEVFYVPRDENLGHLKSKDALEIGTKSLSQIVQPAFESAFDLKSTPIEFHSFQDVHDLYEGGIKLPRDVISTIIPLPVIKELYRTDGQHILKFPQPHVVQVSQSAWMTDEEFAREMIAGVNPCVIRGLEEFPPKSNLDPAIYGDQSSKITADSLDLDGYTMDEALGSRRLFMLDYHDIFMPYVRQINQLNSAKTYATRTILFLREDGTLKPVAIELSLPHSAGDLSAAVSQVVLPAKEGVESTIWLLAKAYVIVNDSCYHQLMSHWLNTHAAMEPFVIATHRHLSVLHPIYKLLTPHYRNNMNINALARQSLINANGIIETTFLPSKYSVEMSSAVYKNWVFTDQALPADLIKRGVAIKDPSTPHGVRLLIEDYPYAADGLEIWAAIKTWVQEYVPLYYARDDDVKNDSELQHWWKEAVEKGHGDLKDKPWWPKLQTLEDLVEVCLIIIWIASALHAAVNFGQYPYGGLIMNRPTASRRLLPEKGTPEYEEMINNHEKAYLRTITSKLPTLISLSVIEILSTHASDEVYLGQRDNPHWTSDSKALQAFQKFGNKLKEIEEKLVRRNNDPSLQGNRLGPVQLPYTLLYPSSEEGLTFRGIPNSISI
Further details: method as in doi:10.1007/s00044-017-1800-6. The conditions noted are these: 100 μM compound; footnote d; cited from earlier work.

For a further data set, the target named is hCA I (Homo sapiens, UniProt P00915). The data set can be described thus: stopped flow CO2 hydrase assay, hCA I.
A further data set has as its target hCA II (Homo sapiens, UniProt P00918). The data set can be described thus: stopped flow CO2 hydrase assay, hCA II.
In the next data set the target is hCA IV (Homo sapiens, UniProt P22748). The experiment in a line: stopped flow CO2 hydrase assay, hCA IV.
For another data set, the target named is hCA IX (Homo sapiens, UniProt Q16790). The experiment in a line: stopped flow CO2 hydrase assay, hCA IX.
For data set [2], the target named is T1, soybean lipoxygenase (LOX). The data set can be described thus: in vitro inhibition of soybean lipoxygenase, UV absorbance based enzyme assay. Type of data set: biochemical. Particulars: sodium linoleate 0.1 mM, pH 9. Here is the method: Most of the LOX inhibitors are antioxidants or free radical scavengers. LOXs contain a non-heme iron per molecule in the enzyme active site as high-spin Fe^2+ in the native state and the high spin Fe^3+ in the activated state.
A DMSO solution of the tested compound was incubated with sodium linoleate (0.1 mM) and 0.2 mL of soybean LOX solution (1/9 × 10^−4 w/v in saline) in buffer pH 9 (tris) and at room temperature.

Each structure is given as a SMILES string. pIC50, pKi: −log10 of the molar value.

This is an account of results in PMC6017447, “Novel 6- and 7-Substituted Coumarins with Inhibitory Action against Lipoxygenase and Tumor-Associated Carbonic Anhydrase IX” (Molecules : A Journal of Synthetic Chemistry and Natural …, 2018).

The pKi is the negative decadic logarithm of the Ki, by convention in mol/L. Lower therefore signals a high Ki. What is called melting point is the temperature of the solid-liquid transition. By inhibition is commonly meant the relative decrease from the control value, in per cent. As a reminder, the pIC50 is the IC50 on a negative log10 scale, so that one unit is a factor of ten. A low value points to a large IC50.

Sequence of hCA IV (P22748 19-312): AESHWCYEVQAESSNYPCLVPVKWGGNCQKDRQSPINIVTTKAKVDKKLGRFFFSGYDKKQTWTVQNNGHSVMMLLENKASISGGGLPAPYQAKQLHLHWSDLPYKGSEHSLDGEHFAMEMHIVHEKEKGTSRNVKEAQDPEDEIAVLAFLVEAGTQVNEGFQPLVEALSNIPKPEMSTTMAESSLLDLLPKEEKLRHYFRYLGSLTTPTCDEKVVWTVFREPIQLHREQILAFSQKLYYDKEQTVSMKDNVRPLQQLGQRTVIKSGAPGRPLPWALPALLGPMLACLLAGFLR
Sequence of hCA I (P00915 whole entry): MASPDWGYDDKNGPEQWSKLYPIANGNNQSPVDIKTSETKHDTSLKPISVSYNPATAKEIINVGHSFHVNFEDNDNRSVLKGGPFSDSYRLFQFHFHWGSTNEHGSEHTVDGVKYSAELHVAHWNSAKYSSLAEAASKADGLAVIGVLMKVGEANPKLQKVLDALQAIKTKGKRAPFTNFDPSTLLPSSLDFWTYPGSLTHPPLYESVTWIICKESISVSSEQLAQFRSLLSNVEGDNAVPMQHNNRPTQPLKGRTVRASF
Experimental for hCA II: (§1) An Applied Photophysics (Oxford, UK) stopped-flow instrument has been used for assaying the CA catalysed CO2 hydration activity [36]. […] The uncatalyzed rates were determined in the same manner and subtracted from the total observed rates. Stock solutions of inhibitor (0.1 mM) were prepared in distilled-deionized water and dilutions up to 0.01 nM were done thereafter with distilled-deionized water. […] The inhibition constants were obtained by non-linear least-squares methods using PRISM 3, as reported earlier [42, 43, 44, 45, 46, 47, 48, 49, 50] and represent the mean from at least three different determinations. The four CA isoforms were recombinant proteins obtained as reported earlier in our laboratory [42, 43, 44, 45, 46, 47, 48, 49, 50].
Experimental for hCA IV: as §1
Experimental for hCA IX: as §1

With `O=C(O)COc1ccc2oc(=O)ccc2c1` [Compound 3b, 2-((2-Oxo-2H-chromen-6-yl)oxy)acetic acid], in data set [1], the “% LOX Inhibition at 100 Μμ” value was 50%. The negative logarithm of the Ki (pKi) is under 5.00 on hCA I, under 5.00 on hCA II, under 5.00 on hCA IV and 6.71 on hCA IX.

`CCOC(=O)COc1ccc2oc(=O)ccc2c1` [Compound 2b, Ethyl 2-((2-oxo-2H-chromen-6-yl)oxy)acetate]: the melting point was 120 to 122 °C. In data set [1], the “% LOX Inhibition at 100 Μμ” value was 41%. On hCA I, this molecule gave a negative logarithm of the Ki (pKi) of under 5.00. The molecule further gave a pKi at hCA II of under 5.00. At hCA IV, this molecule showed a pKi of under 5.00. At hCA IX, the pKi is 5.69.

As for `O=C(O)COc1ccc2ccc(=O)oc2c1` [Compound 3a, 2-((2-Oxo-2H-chromen-7-yl)oxy)acetic acid], in data set [1], the “% LOX Inhibition at 100 Μμ” value is recorded as 50%. Moreover, the pKi was under 5.00 at hCA I, under 5.00 at hCA II, 5.07 at hCA IV and 6.54 at hCA IX.

Molecule `CCOC(=O)COc1ccc2ccc(=O)oc2c1` [Compound 2a, Ethyl 2-((2-oxo-2H-chromen-7-yl)oxy)acetate] yielded a melting point of 112.9 to 113 °C. In data set [1], the “% LOX Inhibition at 100 Μμ” value is listed as 16%. On hCA I, this molecule showed a pKi of under 5.00. Also, the pKi on hCA II was under 5.00. Besides, the pKi at hCA IV is 5.25. This molecule showed a pKi on hCA IX of 6.61.

Molecule `O=C(COc1ccc2oc(=O)ccc2c1)NCCc1ccccc1` [Compound 4b, 2-((2-Oxo-2H-chromen-6-yl)oxy)-N-phenethylacetamide] showed a melting point of 150 to 151 °C. For the same molecule, the inhibition at 100 µM in data set [2] (100 μM compound, read-out: % LOX Inhibition at 100 Μμ) worked out at 85%. This molecule also gave a pIC50 in data set [2] of 5.00. Moreover, the pKi at hCA I is under 5.00. Further, the negative logarithm of the Ki (pKi) at hCA II was under 5.00. For the same molecule, the negative-log Ki (pKi) at hCA IV is under 5.00. The pKi on hCA IX is 7.52.
